Test results from US9499550B2 (BRISTOL-MYERS SQUIBB COMPANY, priority 2012, dated 2016).
Like-named read-outs stand apart in the source and are kept apart here.

Tests used:
[1] = system: HCV genotype 1a (H77 strain) replicon in HUH-7 cells; assay: HCV replicon luciferase reporter assay, genotype 1a; assay type: cell-based; settings: Hepatitis C virus, Huh-7, 72 h, 3 days incubation
Method in brief: (§1)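 Replicon inhibition for both genotypes was measured as Renilla luciferase signal (EnduRen, 7.5 μM final, 2 h) after 3-day, 37° C exposure of replicon-bearing HUH-7 cells in 4% FCS DMEM, 0.5% DMSO. The 1b construct carries S1179I; the 1a H77 construct carries P1496L and S2204I. Twenty-point, 3-fold dilutions were fitted four-parametrically for EC50, and CC50 was taken from multiplexed Cell Titer-Blue.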

[2] = system: HCV genotype 1b (Con1) replicon in HUH-7 cells; assay: HCV replicon luciferase reporter assay, genotype 1b; assay type: cell-based; settings: Hepatitis C virus, Huh-7, 72 h, 3 days incubation
Method in brief: as §1

[3] = HCV genotype 1a replicon luciferase, read-out: LE_1a (EC50, range)
[4] = HCV genotype 1b replicon luciferase, read-out: LE_1b (EC50, range)
[5] = GETYPE1A, HCV genotype 1a replicon luciferase, read-out: LE_1a (EC50, range)
[6] = GETYPE1B, HCV genotype 1b replicon luciferase, read-out: LE_1b (EC50, range)
[7] = HCV genotype 1a replicon luciferase assay, range class, read-out: LE_1a (EC50, range)
[8] = HCV genotype 1b replicon luciferase assay, range class, read-out: LE_1b (EC50, range)

Structure (SMILES)	EC50 [1, 3]	EC50 [2, 4]	other results
CCn1nc(O[C@@H]2C[C@H]3C(=O)N[C@]4(C(=O)NS(=O)(=O)C5CC5)C[C@H]4/C=C\CC[C@@H](C)C[C@@H](C)[C@H](NC(=O)c4ccc(N(C)C)cc4)C(=O)N3C2)c2ccccc2c1=O [Compound 5074, (2R,6S,7R,9R,13aS,14aR,16aS,Z)—N-(cyclopropylsulfonyl)-6-(4-(dimethylamino)benzamido)-2-((3-ethyl-4-oxo-3,4-dihydrophthalazin-1-yl)oxy)-7,9-dimethyl-5,16-dioxo-1,2,3,5,6,7,8,9,10,11,13a,14,14a,15,16,16a-hexadecahydrocyclopropa[e]pyrrolo[1,2-a][1,4]diazacyclopentadecine-14a-carboxamide]	4.82 to 103 nM	4.82 to 103 nM	
CC[C@@H]1C[C@H](C)CC/C=C\[C@@H]2C[C@@]2(C(=O)NS(=O)(=O)C2(C)CC2)NC(=O)[C@@H]2C[C@@H](Oc3nc4cc(OC(C)C)ccc4nc3C(F)(F)F)CN2C(=O)[C@H]1NC(=O)OC(C)(C)C [Compound 4362, tert-butyl ((2R,6S,7R,9R,13aS,14aR,16aS,Z)-7-ethyl-2-((7-isopropoxy-3-(trifluoromethyl)quinoxalin-2-yl)oxy)-9-methyl-14a-(((1-methylcyclopropyl)sulfonyl)carbamoyl)-5,16-dioxo-1,2,3,5,6,7,8,9,10,11,13a,14,14a,15,16,16a-hexadecahydrocyclopropa[e]pyrrolo[1,2-a][1,4]diazacyclopentadecin-6-yl)carbamate]	1.01 to 5 nM	0.51 to 1 nM	
CC[C@@H]1C[C@@H](C)CC/C=C\[C@@H]2C[C@@]2(C(=O)NS(=O)(=O)C2(C)CC2)NC(=O)[C@@H]2C[C@@H](Oc3nccc4c5c(ccc34)OCCO5)CN2C(=O)[C@H]1NC(=O)OC(C)(C)C(C)(F)F [Compound 5331, 3,3-difluoro-2-methylbutan-2-yl((2R,6S,7R,9S,13aS,14aR,16aS,Z)-2-((2,3-dihydro-[1,4]dioxino[2,3-f]isoquinolin-7-yl)oxy)-7-ethyl-9-methyl-14a-(((1-methylcyclopropyl)sulfonyl)carbamoyl)-5,16-dioxo-1,2,3,5,6,7,8,9,10,11,13a,14,14a,15,16,16a-hexadecahydrocyclopropa[e]pyrrolo[1,2-a][1,4]diazacyclopentadecin-6-yl)carbamate]	4.82 to 103 nM	< 5.46 nM	EC50 ([1]; HCV genotype 1a replicon luciferase, read-out: LE_1a (EC50)): 12.8 nM; EC50 ([2]; HCV genotype 1b replicon luciferase, read-out: LE_1b (EC50)): 3.94 nM
CC[C@@H]1C[C@H](C)CC/C=C\[C@@H]2C[C@@]2(C(=O)NS(=O)(=O)C2CC2)NC(=O)[C@@H]2C[C@@H](Oc3nc4c(c5cc(OC)c(F)cc35)CCCO4)CN2C(=O)[C@H]1NC(=O)OC(C)(C)C(F)(F)F [Compound 1195]			EC50 [1, 5]: 1.01 to 5 nM; EC50 [2, 6]: 1.01 to 5 nM
CC(C)Oc1cc2c(Cl)cccc2c(O[C@@H]2C[C@H]3C(=O)N[C@]4(C(=O)NS(=O)(=O)C5(C)CC5)C[C@H]4/C=C\CC[C@@H](C)C[C@@H](C)[C@H](NC(=O)OC(C)(C)C(C)(F)F)C(=O)N3C2)n1 [Compound 1104, 3,3-difluoro-2-methylbutan-2-yl((2R,6S,7R,9R,13aS,14aR,16aS,Z)-2-((5-chloro-3-isopropoxyisoquinolin-1-yl)oxy)-7,9-dimethyl-14a-(((1-methylcyclopropyl)sulfonyl)carbamoyl)-5,16-dioxo-1,2,3,5,6,7,8,9,10,11,13a,14,14a,15,16,16a-hexadecahydrocyclopropa[e]pyrrolo[1,2-a][1,4]diazacyclopentadecin-6-yl)carbamate]			EC50 [1, 7]: < 5.46 nM; EC50 [2, 8]: < 5.46 nM
COCCOc1cc2c(Cl)cccc2c(O[C@@H]2C[C@H]3C(=O)N[C@]4(C(=O)NS(=O)(=O)C5(C)CC5)C[C@H]4/C=C\CC[C@H](C)C[C@@H](C)[C@H](NC(=O)OC(C)(C)C(C)(F)F)C(=O)N3C2)n1 [Compound 1115, 3,3-difluoro-2-methylbutan-2-yl((2R,6S,7R,9S,13aS,14aR,16aS,Z)-2-((5-chloro-3-(2-methoxyethoxyl)isoquinolin-1-yl)oxy)-7,9-dimethyl-14a-(((1-methylcyclopropyl)sulfonyl)carbamoyl)-5,16-dioxo-1,2,3,5,6,7,8,9,10,11,13a,14,14a,15,16,16a-hexadecahydrocyclopropa[e]pyrrolo[1,2-a][1,4]diazacyclopentadecin-6-yl)carbamate]			EC50 [1, 7]: < 5.46 nM; EC50 [2, 8]: < 5.46 nM
COc1ccc2c(O[C@@H]3C[C@H]4C(=O)N[C@]5(C(=O)NS(=O)(=O)C6(CF)CC6)C[C@H]5/C=C\CC[C@@H](C)C[C@@H](C)[C@H](NC(=O)c5ccncc5F)C(=O)N4C3)ncc(OC)c2c1 [Compound 4171, (2R,6S,7R,9R,13aS,14aR,16aS,Z)-2-(4,6-dimethoxyisoquinolin-1-yloxy)-6-(3-fluoroisonicotinamido)-N-(1-(fluoromethyl)cyclopropylsulfonyl)-7,9-dimethyl-5,16-dioxo-1,2,3,5,6,7,8,9,10,11,13a,14,14a,15,16,16a-hexadecahydrocyclopropa[e]pyrrolo[1,2-a][1,4]diazacyclopentadecine-14a-carboxamide]	< 5.46 nM	< 5.46 nM	
CC[C@@H]1C[C@H](C)CC/C=C\[C@@H]2C[C@@]2(C(=O)NS(=O)(=O)C2CC2)NC(=O)[C@@H]2C[C@@H](Oc3cc(OC)nc4cc(OC)ccc34)CN2C(=O)[C@H]1NC(=O)OC(C)(C)C(F)(F)F [Compound 1211]			EC50 [1, 5]: 1.01 to 5 nM; EC50 [2, 6]: 0.51 to 1 nM
CC[C@@H]1C[C@H](C)CC/C=C\[C@@H]2C[C@@]2(C(=O)NS(=O)(=O)C2CC2)NC(=O)[C@@H]2C[C@@H](Oc3nccc4cc(OC)c(F)cc34)CN2C(=O)[C@H]1NC(=O)OC(C)(C)C(F)(F)F [Compound 4004, 1,1,1-trifluoro-2-methylpropan-2-yl (2R,6S,7R,9R,13aS,14aR,16aS,Z)-14a-(cyclopropylsulfonylcarbamoyl)-7-ethyl-2-(7-fluoro-6-methoxyisoquinolin-1-yloxy)-9-methyl-5,16-dioxo-1,2,3,5,6,7,8,9,10,11,13a,14,14a,15,16,16a-hexadecahydrocyclopropa[e]pyrrolo[1,2-a][1,4]diazacyclopentadecin-6-ylcarbamate]	< 5.46 nM	< 5.46 nM	
COc1cc2ccnc(O[C@@H]3C[C@H]4C(=O)N[C@]5(C(=O)NS(=O)(=O)C6CC6)C[C@H]5/C=C\CC[C@@H](C)C[C@@H](C)[C@H](NC(=O)OC(C)(C)C)C(=O)N4C3)c2cc1OC [Compound 5391, tert-butyl ((2R,6S,7R,9R,13aS,14aR,16aS,Z)-14a-((cyclopropylsulfonyl)carbamoyl)-2-((6,7-dimethoxyisoquinolin-1-yl)oxy)-7,9-dimethyl-5,16-dioxo-1,2,3,5,6,7,8,9,10,11,13a,14,14a,15,16,16a-hexadecahydrocyclopropa[e]pyrrolo[1,2-a][1,4]diazacyclopentadecin-6-yl)carbamate]	1.01 to 5 nM	1.01 to 5 nM	
COc1ccc2c(O[C@@H]3C[C@H]4C(=O)N[C@]5(C(=O)NS(=O)(=O)C6(C)CC6)C[C@H]5/C=C\CC[C@@H](C)C[C@@H](C)[C@H](NC(=O)C5CCN(C(C)=O)CC5)C(=O)N4C3)ncc(OC)c2c1 [Compound 4141, (2R,6S,7R,9R,13aS,14aR,16aS,Z)-6-(1-acetylpiperidine-4-carboxamido)-2-(4,6-dimethoxyisoquinolin-1-yloxy)-7,9-dimethyl-N-(1-methylcyclopropylsulfonyl)-5,16-dioxo-1,2,3,5,6,7,8,9,10,11,13a,14,14a,15,16,16a-hexadecahydrocyclopropa[e]pyrrolo[1,2-a][1,4]diazacyclopentadecine-14a-carboxamide]	4.82 to 103 nM	4.82 to 103 nM	
COc1cc2ccccc2c(O[C@@H]2C[C@H]3C(=O)N[C@]4(C(=O)NS(=O)(=O)C5CC5)C[C@H]4/C=C\CC[C@@H](C)C[C@@H](C)[C@H](NC(=O)OC(C)(C)C)C(=O)N3C2)n1 [Compound 6011, tert-butyl ((2R,6S,7R,9R,13aS,14aR,16aS,Z)-14a-((cyclopropylsulfonyl)carbamoyl)-2-((3-methoxyisoquinolin-1-yl)oxy)-7,9-dimethyl-5,16-dioxo-1,2,3,5,6,7,8,9,10,11,13a,14,14a,15,16,16a-hexadecahydrocyclopropa[e]pyrrolo[1,2-a][1,4]diazacyclopentadecin-6-yl)carbamate]	< 5.46 nM	< 5.46 nM	
COc1cc2ccnc(O[C@@H]3C[C@H]4C(=O)N[C@]5(C(=O)NS(=O)(=O)C6(CF)CC6)C[C@H]5/C=C\CC[C@@H](C)C[C@@H](C)[C@H](NC(=O)C(C)(C)C(F)(F)F)C(=O)N4C3)c2cc1F [Compound 4091, (2R,6S,7R,9R,13aS,14aR,16aS,Z)-2-(7-fluoro-6-methoxyisoquinolin-1-yloxy)-N-(1-(fluoromethyl)cyclopropylsulfonyl)-7,9-dimethyl-5,16-dioxo-6-(3,3,3-trifluoro-2,2-dimethylpropanamido)-1,2,3,5,6,7,8,9,10,11,13a,14,14a,15,16,16a-hexadecahydrocyclopropa[e]pyrrolo[1,2-a][1,4]diazacyclopentadecine-14a-carboxamide]	< 5.46 nM	< 5.46 nM	
